Results as given in patent US20210238169A1, “PROCESS FOR PREPARING A COMPOUND OF FORMULA (XIII)” (PULMOCIDE LIMITED, priority 2014, published 2021).
Values after ≈ are worked out from the molar mass of the structure shown. Read-outs that look alike come from different tables or passages of the source.

Experiments:
Assay type in all cases: cell-based
Aspergillus fumigatus = Aspergillus fumigatus infection of BEAS2B bronchial epithelial cells (GM in supernatant)
Procedure: BEAS2B cells were seeded in 96-well plates (100 μL; 30,000 cells/well; Catalogue No 3596, Sigma Aldrich, Dorset, UK) in 10% FBS RPMI-1640 and were then incubated (37° C., 5% CO2) for one day before experimentation. Test compounds (0.5 μL DMSO solution) or vehicle (DMSO) were added to each well to give a final DMSO concentration of 0.5%. BEAS2B cells were incubated with test compounds for 1 hr (35° C., 5% CO2) before infection with Aspergillus fumigatus (20 μL; Public Health England) conidia suspension (0.5×10^5/ml in 10% FBS RPMI-1640). The plate was incubated for 24 hr (35° C., 5% CO2). Supernatant (50 μL) was collected and transferred to a PCR plate (Catalogue No L1402-9700, Starlab, Milton Keynes, UK), which was frozen (−20° C.) until use. After thawing, supernatant (5 μL) was diluted 1:20 by adding R7-PBS solution (95 μL; 1:4 R7 to PBS; Bio-Rad Laboratories, Redmond, Wash., USA). GM levels in these samples (50 μL) were measured using Platelia GM-EIA kits (Bio-Rad Laboratories, Redmond, Wash., USA). The percentage inhibition for each well was calculated and the IC50 value was calculated from the concentration-response curve generated for each test compound.

[1] = test system: Aspergillus fumigatus (NCPF2010); experiment: Resazurin-microtitre assay of planktonic fungal growth; conditions: Aspergillus fumigatus; for MIC: read-out: Planktonic fungal growth MIC75
Procedure: This assay was conducted using a modified, published method (Monteiro et al., 2012). Spores of Aspergillus fumigatus (NCPF2010, Public Health England, Wiltshire) were cultured in Sabouraud dextrose agar for 3 days. A stock spore suspension was prepared from a Sabouraud dextrose agar culture by washing with PBS-tween (10 mL; PBS containing 0.05% Tween-20, 100 U/mL Penicillin and 100 U/mL Streptomycin). The spore count was assessed using a Neubauer haemocytometer and, using PBS, adjusted to 10^6 spores/mL. A working suspension of spores (10^4 spores/mL) was prepared in filter sterilised MOPS RPMI-1640 (50 mL; RPMI-1640 containing 2 mM L-glutamine, 2% glucose and 0.165 M MOPS, buffered to pH 7 with NaOH). Resazurin sodium salt (100 μL of 1% solution; Sigma-Aldrich, Dorset, UK) was added to the spore suspension and mixed well. The spore suspension-resazurin mixture (100 μL/well) was added to 384-well plates (Catalogue number 353962, BD Falcon, Oxford, UK). Simultaneously, test compounds (0.5 μL DMSO solution) were added to 100 μL of the spore-resazurin mixture in quadruplicate to provide a final DMSO solution of 0.5% using an Integra VIAFLO 96 (Intergra, Zizers, Switzerland). For non-spore control wells, MOPS-RPMI-resazurin solution (100 μL) was added instead of the spore-resazurin mixture. The plate was covered with a Breathe Easier membrane (Catalogue No Z763624, Sigma-Aldrich, Dorset, UK), and incubated (35° C., 5% CO2) until fluorescence in the inoculated wells was double that of the control wells (around 24 hr). The fluorescence of each well (545 nm (excitation)/590 nm (emission), gain 800, focal height 5.5 mm) was determined using a multi-scanner (Clariostar: BMG, Buckinghamshire, UK). The percentage inhibition for each well was calculated and the MIC50, MIC75 and MIC90 values were calculated from the concentration-response curve generated for each test compound.

[2] = test system: Aspergillus fumigatus isolates; experiment: Broth microdilution assay of planktonic fungal growth (modified EUCAST); conditions: Aspergillus fumigatus
Procedure: This assay was conducted using a modified method published by EUCAST (Rodriguez-Tudela et al., 2008). Spores of Aspergillus fumigatus (NCPF2010, NCPF7010 (Methionine 220 mutation), NCPF7099 (Glycine G54 mutation) from Public Health England, Wiltshire; TR34/L98H mutants from St Louis Hospital, Paris, France) were cultured in Sabouraud dextrose agar for 3 days. A stock spore suspension was prepared from a Sabouraud dextrose agar culture by washing with PBS-tween (10 mL; PBS containing 0.05% Tween-20, 100 U/mL Penicillin and 100 U/mL Streptomycin). The spore count was assessed using a Neubauer haemocytometer and then adjusted to 10^6 spores/mL with PBS. A working suspension of spores (2×10^5 spores/mL) was prepared in filter sterilised, BSA MOPS RPMI-1640 (50 mL; RPMI-1640 containing 2 mM L-glutamine, 0.5% BSA, 2% glucose, 0.165 M MOPS, buffered to pH 7 with NaOH). For the assay, BSA MOPS RPMI-1640 (50 μL/well) was added throughout the 384-well plate (Catalogue number 353962, BD Falcon, Oxford, UK) first. Test compounds (0.5 μL DMSO solution) were then added in quadruplicate using an Integra VIAFLO 96 (Integra, Zizers, Switzerland), and mixed well using a plate mixer. Subsequently 50 μL of the working spore suspension prepared above was added to all wells except non-spore control wells. For non-spore control wells, BSA MOPS-RPMI solution (50 μL/well) was added instead. The plate was covered with a plastic lid, and incubated (35° C. with ambient air) for 48 hr. The OD of each well at 530 nm was determined using a multi-scanner (Clariostar: BMG, Buckinghamshire, UK). The percentage inhibition for each well was calculated and the MIC50, MIC75 and MIC90 values were calculated from the concentration-response curve generated for each test compound.

[3] = test system: Aspergillus fumigatus isolates; experiment: as above; conditions: Aspergillus fumigatus; isolate NCPF7100, broth microdilution; read-out: MIC75
Trichophyton rubrum = experiment: Fungus panel screening, CLSI broth microdilution; conditions: strain ATCC10218, visual inspection (CLSI); for MIC: read-out: MIC100
Procedure: (§1) Fungus panel screening was conducted by Eurofins Panlabs Inc. The MIC and MIC50 values of the test articles were determined following the guidelines of the Clinical and Laboratory Standards Institute, broth microdilution methods for yeast (CLSI M27-A2), (CLSI, 2002) and for filamentous fungi (CLSI M38-A), (CLSI, 2008).

Penicillium chrysogenum = experiment: Fungus panel screening, CLSI broth microdilution; conditions: strain ATCC9480, visual inspection (CLSI); for MIC: read-out: MIC100
Procedure: as §1

Candida albicans = experiment: Fungus panel screening, CLSI broth microdilution; conditions: for MIC50 / MIC: Candida albicans; for MIC: read-out: MIC100
Procedure: as §1

[4] = isolate NCPF7099, broth microdilution, read-out: MIC75
[5] = ATCC10231, strain ATCC10231, visual inspection (CLSI)
[6] = strain 20183.073, visual inspection (CLSI)
[7] = strain 20186.025, visual inspection (CLSI)
[8] = strain 20240.047, visual inspection (CLSI)
[9] = strain ATCC10231, visual inspection (CLSI)

C[C@@H](c1ncncc1F)[C@](O)(Cn1cncn1)c1ccc(F)cc1F [Voriconazole]
MIC50 (Aspergillus fumigatus): 0.154 µM (≈ 0.0538 µg/mL)
MIC50 [1]: 0.0908 µM (≈ 0.0317 µg/mL)
MIC [1]: 0.168 µM (≈ 0.0587 µg/mL)
MIC ([2]; read-out: MIC75): > 2.86 µM
MIC [2, 4]: 0.0967 µM (≈ 0.0338 µg/mL)
MIC [3]: 0.596 µM (≈ 0.208 µg/mL)
MIC50 (Trichophyton rubrum): < 0.008 µg/mL
MIC (Trichophyton rubrum): 0.063 µg/mL (≈ 0.18 µM)
MIC50 (Penicillium chrysogenum): 1 µg/mL (≈ 2.86 µM)
MIC (Penicillium chrysogenum): 2 µg/mL (≈ 5.73 µM)
MIC50 (Candida albicans; [5]): 0.25 µg/mL (≈ 0.716 µM)
MIC50 (Candida albicans; [6]): 4 µg/mL (≈ 11.5 µM)
MIC50 (Candida albicans; [7]): > 8 µg/mL
MIC50 (Candida albicans; [8]): 0.031 µg/mL (≈ 0.0887 µM)
MIC (Candida albicans; [8]): > 8 µg/mL
MIC (Candida albicans; [9]): > 8 µg/mL
MIC100 (Candida albicans; [7]): >8.0 µg/mL

CC[C@@H]([C@H](C)O)n1ncn(-c2ccc(N3CCN(c4ccc(OC[C@@H]5CO[C@@](Cn6cncn6)(c6ccc(F)cc6F)C5)cc4)CC3)cc2)c1=O [Posaconazole]
MIC50 (Aspergillus fumigatus): 0.00448 µM (≈ 0.00314 µg/mL)
MIC50 [1]: 0.00364 µM (≈ 0.00255 µg/mL)
MIC [1]: 0.00694 µM (≈ 0.00486 µg/mL)
MIC ([2]; read-out: MIC75): 0.15 µM (≈ 0.105 µg/mL)
MIC [2, 4]: 0.112 µM (≈ 0.0785 µg/mL)
MIC [3]: 0.0715 µM (≈ 0.0501 µg/mL)
MIC50 (Trichophyton rubrum): < 0.008 µg/mL
MIC (Trichophyton rubrum): 0.031 µg/mL (≈ 0.0442 µM)
MIC50 (Penicillium chrysogenum): 0.063 µg/mL (≈ 0.0899 µM)
MIC (Penicillium chrysogenum): 0.13 µg/mL (≈ 0.186 µM)
MIC50 (Candida albicans; [5]): 0.13 µg/mL (≈ 0.186 µM)
MIC50 (Candida albicans; [6]): 0.25 µg/mL (≈ 0.357 µM)
MIC50 (Candida albicans; [7]): > 8 µg/mL
MIC50 (Candida albicans; [8]): 0.031 µg/mL (≈ 0.0442 µM)
MIC (Candida albicans; [8]): > 8 µg/mL
MIC (Candida albicans; [9]): > 8 µg/mL
MIC100 (Candida albicans; [7]): >8.0 µg/mL

Cc1cc(N2CCN(c3ccc(C(=O)Nc4ccc(F)cc4)cc3)CC2)ccc1OC[C@@H]1CO[C@@](Cn2cncn2)(c2ccc(F)cc2F)C1 [Compound (I), 4-(4-(4-(((3R,5R)-5-((1H-1,2,4-triazol-1-yl)methyl)-5-(2,4-difluorophenyl)tetrahydrofuran-3-yl)methoxy)-3-methylphenyl)piperazin-1-yl)-N-(4-fluorophenyl)benzamide]
MIC50 (Aspergillus fumigatus): 0.00543 µM (≈ 0.00371 µg/mL)
MIC50 [1]: 0.00198 µM (≈ 0.00135 µg/mL)
MIC [1]: 0.00502 µM (≈ 0.00343 µg/mL)
MIC ([2]; NCPF2010, read-out: MIC75): 0.0136 µM (≈ 0.00929 µg/mL)
MIC ([2]; read-out: MIC75): 0.0567 µM (≈ 0.0387 µg/mL)
MIC [2, 4]: 0.0165 µM (≈ 0.0113 µg/mL)
MIC [3]: 0.0197 µM (≈ 0.0135 µg/mL)
MIC50 (Trichophyton rubrum): < 0.008 µg/mL
MIC (Trichophyton rubrum): 0.031 µg/mL (≈ 0.0454 µM)
MIC50 (Penicillium chrysogenum): 0.031 µg/mL (≈ 0.0454 µM)
MIC (Penicillium chrysogenum): > 8 µg/mL
MIC50 (Candida albicans; [5]): 0.13 µg/mL (≈ 0.19 µM)
MIC50 (Candida albicans; [6]): 0.5 µg/mL (≈ 0.732 µM)
MIC50 (Candida albicans; [7]): > 8 µg/mL
MIC50 (Candida albicans; [8]): 0.031 µg/mL (≈ 0.0454 µM)
MIC (Candida albicans; [8]): > 8 µg/mL
MIC (Candida albicans; [9]): > 8 µg/mL
